The values below come from ChEMBL document CHEMBL5360657, “Discovery of the TLR7/8 Antagonist MHV370 for Treatment of Systemic Autoimmune Diseases” (ACS Med Chem Lett, 2023).

SMILES strings stand for the structures. Bounds are passed on as bounds.

Data set [1] can be described thus: Solubility of the compound. The class given is physicochemical.
The nature of data set [2]: AUC in mouse at 20 mg/kg, po. In kind it is ADME, organism-based. The arrangement: dose 20 mg/kg, route po. The settings on record: in vivo.
Data set [3] in a line: Cmax in mouse at 3 mg/kg, iv. In kind it is ADME, organism-based. Also noted: dose 3 mg/kg, route iv. The settings on record: in vivo.
Data set [4] is described as follows: AUC in mouse at 3 mg/kg, iv. The class given is ADME, organism-based. The arrangement: dose 3 mg/kg, route iv. The settings on record: in vivo.
Data set [5] in a line: MRT in mouse at 20 mg/kg, po. As to conditions: in vivo. In kind it is ADME, organism-based.
Data set [6] is described as follows: Oral bioavailability in mouse at 20 mg/kg. In kind it is ADME, organism-based. As to conditions: in vivo.
Data set [7] can be described thus: Half life in mouse at 3 mg/kg, iv. The class given is ADME, organism-based. As to conditions: in vivo.
Data set [8] concerns the target Toll-like receptor 7 (Mus musculus) (UniProt P58681). Briefly: In vivo antagonist activity against TLR7 in mouse assessed as suppression of IFN alpha level at 3 mg/kg, po measured at 3 hrs by LC-MS/MS analysis.
For data set [9], the target named is T1, Toll-like receptor 8 (Homo sapiens, UniProt Q9NR97).
T1 sequence (Q9NR97 whole entry): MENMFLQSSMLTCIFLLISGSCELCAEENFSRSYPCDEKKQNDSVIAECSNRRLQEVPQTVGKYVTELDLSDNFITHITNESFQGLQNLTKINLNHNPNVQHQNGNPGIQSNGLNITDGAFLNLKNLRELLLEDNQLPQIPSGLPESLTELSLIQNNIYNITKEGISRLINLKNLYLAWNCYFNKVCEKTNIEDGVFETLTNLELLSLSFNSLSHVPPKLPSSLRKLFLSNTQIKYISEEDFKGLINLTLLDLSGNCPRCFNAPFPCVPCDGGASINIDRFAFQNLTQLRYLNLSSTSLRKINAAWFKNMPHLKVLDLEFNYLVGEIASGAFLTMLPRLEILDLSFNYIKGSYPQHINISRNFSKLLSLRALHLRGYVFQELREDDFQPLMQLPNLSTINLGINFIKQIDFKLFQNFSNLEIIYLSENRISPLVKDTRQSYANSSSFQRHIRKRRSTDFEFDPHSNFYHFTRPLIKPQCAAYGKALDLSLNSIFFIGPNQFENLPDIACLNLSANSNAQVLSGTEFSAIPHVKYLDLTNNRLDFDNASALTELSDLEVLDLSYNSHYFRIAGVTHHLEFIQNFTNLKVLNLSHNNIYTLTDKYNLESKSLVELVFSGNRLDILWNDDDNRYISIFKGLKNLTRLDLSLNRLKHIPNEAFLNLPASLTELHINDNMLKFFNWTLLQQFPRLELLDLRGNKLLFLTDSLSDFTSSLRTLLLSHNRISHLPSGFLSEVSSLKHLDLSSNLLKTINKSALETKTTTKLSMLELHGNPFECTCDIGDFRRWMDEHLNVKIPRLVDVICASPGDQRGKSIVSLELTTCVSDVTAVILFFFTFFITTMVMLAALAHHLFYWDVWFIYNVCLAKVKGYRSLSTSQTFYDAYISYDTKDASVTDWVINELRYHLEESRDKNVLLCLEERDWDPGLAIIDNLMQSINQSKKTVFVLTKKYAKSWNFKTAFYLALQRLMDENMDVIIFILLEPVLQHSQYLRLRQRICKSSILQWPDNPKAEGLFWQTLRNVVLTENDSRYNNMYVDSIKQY
Briefly: Antagonist activity at TLR8 in human Whole blood cell […] assessed as reduction in IL-6 level measured after 30 mins. The class given is tissue-based.

Data set [10] deals with Toll-like receptor 7 (Mus musculus) (UniProt P58681). In words: In vivo antagonist activity against TLR7 in mouse assessed as suppression of IFN alpha level at 10 mg/kg, po measured at 3 hrs by LC-MS/MS analysis.
Data set [11] has the same target. In words: In vivo antagonist activity against TLR7 in mouse assessed as inhibition of IL-6 level at 10 mg/kg, po measured after 2 hrs by LC-MS/MS analysis relative to control.
The target is the same in data set [12]. In words: In vivo antagonist activity against TLR7 in mouse assessed as inhibition of IFN alpha level at 10 mg/kg, po measured after 2 hrs by LC-MS/MS analysis relative to control.
The target in data set [13] is T2, Toll-like receptor 9 (Mus musculus, UniProt Q9EQU3).
T2 sequence (Q9EQU3 whole entry): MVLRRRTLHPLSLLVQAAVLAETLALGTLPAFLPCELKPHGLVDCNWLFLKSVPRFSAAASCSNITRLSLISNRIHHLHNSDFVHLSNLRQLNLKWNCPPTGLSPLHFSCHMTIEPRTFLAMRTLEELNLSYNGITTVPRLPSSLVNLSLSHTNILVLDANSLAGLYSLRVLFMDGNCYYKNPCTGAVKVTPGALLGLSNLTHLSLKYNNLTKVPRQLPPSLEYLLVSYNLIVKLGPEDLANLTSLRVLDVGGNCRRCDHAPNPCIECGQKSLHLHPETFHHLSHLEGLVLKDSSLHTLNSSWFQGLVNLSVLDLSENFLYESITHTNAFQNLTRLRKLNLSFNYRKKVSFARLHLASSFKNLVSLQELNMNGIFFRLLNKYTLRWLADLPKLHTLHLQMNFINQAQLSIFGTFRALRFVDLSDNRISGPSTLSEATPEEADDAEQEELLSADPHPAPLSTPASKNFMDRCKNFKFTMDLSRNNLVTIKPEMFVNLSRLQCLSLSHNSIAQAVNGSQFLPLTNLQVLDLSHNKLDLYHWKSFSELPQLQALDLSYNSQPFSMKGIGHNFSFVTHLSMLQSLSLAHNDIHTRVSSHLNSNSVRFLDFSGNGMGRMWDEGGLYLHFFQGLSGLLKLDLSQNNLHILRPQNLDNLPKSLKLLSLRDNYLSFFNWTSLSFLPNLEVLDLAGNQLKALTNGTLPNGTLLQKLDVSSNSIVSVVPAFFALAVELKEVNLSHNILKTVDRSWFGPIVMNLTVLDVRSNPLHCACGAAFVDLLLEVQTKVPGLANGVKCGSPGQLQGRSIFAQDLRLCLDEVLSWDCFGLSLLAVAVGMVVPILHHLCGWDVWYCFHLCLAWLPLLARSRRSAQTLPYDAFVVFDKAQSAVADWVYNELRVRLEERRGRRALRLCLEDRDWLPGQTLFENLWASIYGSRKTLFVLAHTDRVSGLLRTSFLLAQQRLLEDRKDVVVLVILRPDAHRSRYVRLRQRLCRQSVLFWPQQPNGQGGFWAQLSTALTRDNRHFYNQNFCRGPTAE
In words: Antagonist activity at TLR9 in mouse Splenocyte assessed as reduction in IFN-alpha level measured after 20 hrs by Spectramax M5 method. The class given is cell-based.

Data set [14] deals with Toll-like receptor 7 (Mus musculus) (UniProt P58681). Briefly: In vivo antagonist activity against TLR7 in mouse assessed as inhibition of TNF level at 10 mg/kg, po measured after 2 hrs by LC-MS/MS analysis relative to control.
Data set [15] deals with Toll-like receptor 4 (Homo sapiens, UniProt O00206). Briefly: Antagonist activity at TLR4 in human Whole blood cell assessed as reduction in IL-6 level measured after 30 mins. The class given is tissue-based.
Sequence of Toll-like receptor 4 (O00206 whole entry): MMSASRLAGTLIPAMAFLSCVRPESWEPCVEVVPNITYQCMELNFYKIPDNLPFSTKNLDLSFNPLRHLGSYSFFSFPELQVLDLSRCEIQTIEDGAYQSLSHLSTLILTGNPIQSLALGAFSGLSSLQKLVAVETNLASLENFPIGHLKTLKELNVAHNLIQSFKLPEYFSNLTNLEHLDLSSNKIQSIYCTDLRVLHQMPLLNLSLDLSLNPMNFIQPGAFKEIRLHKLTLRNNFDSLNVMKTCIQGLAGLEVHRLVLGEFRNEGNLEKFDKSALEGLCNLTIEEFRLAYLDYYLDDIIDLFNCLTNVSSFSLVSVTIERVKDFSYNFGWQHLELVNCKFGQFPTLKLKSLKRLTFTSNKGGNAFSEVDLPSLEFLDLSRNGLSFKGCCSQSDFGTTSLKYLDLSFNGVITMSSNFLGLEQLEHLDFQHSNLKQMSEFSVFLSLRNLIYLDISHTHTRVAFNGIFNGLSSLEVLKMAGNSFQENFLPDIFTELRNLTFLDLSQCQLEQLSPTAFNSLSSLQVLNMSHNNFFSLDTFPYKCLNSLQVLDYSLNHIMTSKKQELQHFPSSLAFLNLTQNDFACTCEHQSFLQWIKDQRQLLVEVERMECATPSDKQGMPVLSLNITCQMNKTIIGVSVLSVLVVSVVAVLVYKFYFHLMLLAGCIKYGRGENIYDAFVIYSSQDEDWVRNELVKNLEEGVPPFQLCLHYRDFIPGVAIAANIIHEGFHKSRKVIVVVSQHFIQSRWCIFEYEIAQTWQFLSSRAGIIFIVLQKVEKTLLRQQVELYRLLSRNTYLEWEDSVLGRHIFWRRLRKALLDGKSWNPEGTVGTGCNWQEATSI

Broadly, the solubility is the concentration that dissolves in the medium under given conditions. The low end stands for little dissolved substance, the high end for much dissolved substance. The term AUC denotes concentration integrated over time. High values mean more exposure, low ones less exposure. The Cmax is the maximum level reached in the sampled fluid or tissue. A word on the MRT: it is a mean duration of stay, worked out from the concentration-time curve. In general, bioavailability refers to the share of a dose that reaches the circulation, judged against a reference dose that is usually intravenous. As for `Cc1cc(N2CCc3c(c(C)nn3CC34CCC(N)(CC3)CC4)C2)c2cnn(C)c2n1`, in [1], the solubility is over 175 µM. Moreover, the AUC in [2] is 1.15 µM·h; in [4], 5.005 µM·h. In addition, in data set [3], the highest level (Cmax) was 321 nM. In data set [5], the MRT amounted to 2.9 h. For the same molecule, in data set [6], the bioavailability is 4%. This molecule displayed a t1/2 in data set [7] of 2.1 h.

In general, IC50 refers to the midpoint of a concentration-inhibition curve. In general, inhibition in vivo refers to the share of the control response that was lost under treatment. `Cc1cc(N2CCc3c(c(C)nn3CC34CCC(NC(=O)[C@@H]5COCCN5)(CC3)CC4)C2)c2cnn(C)c2n1` [MHV-370]: the Activity in [8] amounted to 141 ng/mL; in [10] it was 550 ng/mL. In addition, the results for the half-inhibitory concentration (IC50) in data set [9], in [13] and in data set [15] were 74 nM, over 1000 nM and over 10000 nM, respectively. The inhibition in vivo at 10 mg/kg in data set [11], in [12] and in data set [14] was about 100% each time.
